Data from paper PMC12111156, “Nitazoxanide Analogs: Synthesis, In Vitro Giardicidal Activity, and Effects on Giardia lamblia Metabolic Gene Expression” (International Journal of Molecular Sciences, 2025).
pIC50: −log10 of the molar value.

Assays:
[1] = system: G. lamblia strain resistant to nitazoxanide; assay: Giardicidal activity in nitazoxanide-resistant strain (trypan blue count); assay type: cell-based; details: Giardia duodenalis, 48 h, read-out: IC50 G. lamblia (NTZ Resistant)
Experimental: A pre-culture at confluence was used as a starting point, and a concentration–response curve was plotted using an initial compound concentration of 25 μM in a final volume of 1.5 mL of TYI-S-33 medium, followed by serial dilutions of the compound. Each treatment was inoculated with 1.5 × 10^5 trophozoites and incubated for 48 h at 37 °C. At the end of the incubation, the number of trophozoites was determined using the trypan blue assay and by counting in a Neubauer chamber. The viability percentage at each compound concentration was calculated using the negative control as a reference.

[2] = system: G6PD::6PGL enzyme of G. lamblia; details: cited from earlier work
Caco-2 and HT-29 cells = assay: Cytotoxicity, XTT viability assay, stated for both cell lines; assay type: cell-based, human; details: 125 µM, 48 h
Experimental: The suspension was added to a 96-well plate. […] Cell viability was determined using the following steps.

[3] = system: G. lamblia strain ATCC 30957; assay: Viability of Giardia lamblia trophozoite culture (trypan blue count); assay type: cell-based
Experimental: Viability analysis was performed on G. lamblia strain ATCC 30957 grown in TYI-S-33 medium supplemented with 10% fetal bovine serum (FBS) and an antibiotic. Pre-culture was performed in 16 × 150 mm borosilicate tubes with a medium inoculated with 2 × 10^5 trophozoites and incubated at 37 °C for 48 h. For the recovery of the trophozoites, the vial was incubated in ice for 8 min and centrifuged for 6 min at 2000 rpm. The concentrated trophozoites were suspended in 1 mL of phosphate-buffered saline (PBS), and the number of trophozoites was counted by placing a 1:1 volume ratio of cell culture and trypan blue dye (4 g/L); then, a homogeneous drop of the mixture was taken and placed in the Neubauer chamber, and the total cells were counted.
The curves were plotted for concentrations of 0–50 µM of each compound. The assay was performed by placing 1.5 × 10^5 cells in 1.5 mL microcentrifuge tubes with a supplemented medium and different concentrations of each compound (0–50 µM). The negative control was performed under the same conditions without a compound, and the drugs NTZ and MTZ were used as positive controls. The samples were incubated for 48 h at 37 °C. At the end of the incubation, the cell viability count was performed using the trypan blue technique. The viability calculation was performed following the formula nv/(nv + nm), where nv represents the live cells and nm represents the dead cells; the viability value obtained was expressed as a percentage. The IC50 value of each compound was determined using the IC50 Calculator software (https://www.aatbio.com/tools/ic50-calculator).

[4] = system: Giardia lamblia trophozoites (strain ATCC 30957) gene expression; assay: Gene expression in trophozoites by RT-qPCR; assay type: cell-based; details: IC50 of each compound, 48 h
Experimental: To determine the alterations in the parasite’s metabolism and cellular processes induced by the compounds, the expression levels of various genes encoding metabolic, structural, and oxidative stress response proteins were evaluated. G. lamblia strain ATCC 30957 was grown by following previously established culture parameters.
The culture tube was incubated on ice for 15 min and then centrifuged at 2000 rpm for 6 min to concentrate the cell pellet. Cell counting was performed using the trypan blue method. A 500 µL volume of Trizol ® was added, and it was gently homogenized; then, 60 µL of chloroform was added, and it was homogenized for 10 s with a vortex and incubated on ice for 3 min. Afterward, it was centrifuged at 12,000 rpm for 10 min, the aqueous phase was transferred to a new tube, 200 µL of isopropanol was added, and it was incubated for 3 h on ice. The sample was then centrifuged for 10 min at 12,000 rpm, and the supernatant was discarded. A 600 µL volume of ethanol (70%) was added, homogenized, and centrifuged. In the end, the supernatant was removed, and the sample was centrifuged again to dry the excess alcohol. The pellet was dried. Finally, it was resuspended in 25 µL of sterile MilliQ water. The concentration and purity of the extracted RNA were determined using the NanoDrop® Spectrophotometer ND-1000 (NanoDrop Technologies, Wilmington, DE, USA). […] RNA purity and integrity were confirmed using 0.8% (w/v) agarose gels under denaturing conditions.
The synthesis of cDNA was carried out with […] of purified RNA, and 1 U of […] was added (Thermo Thermo Fisher Scientific, Waltham, MA, USA). First-strand cDNA synthesis was carried out using 1 μg of DNase-treated RNA, combined with a 10 mM dNTP mix, oligo(dT)18 primer, and RevertAid reverse transcriptase (Thermo Scientific) in a final reaction volume of 20 μL. The reaction mixture was incubated at 42 °C for 60 min, followed by heat inactivation at 70 °C for 10 min. The synthesized cDNA was stored at −20 °C until further use. The level of purity and concentration of the cDNA were determined using the NanoDrop® Spectrophotometer ND-1000 (NanoDrop Technologies, Wilmington, DE, USA).
Specific oligonucleotides were designed to determine the expression levels of the gene’s phosphofructokinase, pyruvate kinase, glucose-6-phosphate dehydrogenase::6-phosphogluconolactonase, 6-phosphogluconate dehydrogenase, and transketolase. The design was based on gene sequences available in the National Center for Biotechnology Information (NCBI) database, adhering to the following criteria: an oligonucleotide length of 18–20 bp, a melting temperature (Tm) of 61 °C, a GC content of approximately 40%, and an amplicon size between 80 and 200 bp (Table 4). The oligonucleotides were synthesized by the Sequencing and Synthesis Unit of the Institute of Biotechnology, UNAM.
Additionally, previously reported primers that were used for the gene expression analysis of G. lamblia were also obtained (Table 4). These primers target genes encoding surface structural protein, giardin, actin, pyruvate:ferredoxin oxidoreductase, pyruvate phosphate dikinase, NADH oxidase, triose phosphate isomerase, glyceraldehyde-3-phosphate dehydrogenase, and Aldolase.
Amplification was performed using a StepOne™ Real-Time PCR System and the Fast SYBR® Green Master Mix kit (Applied Biosystems, Foster City, CA, USA) under the following conditions: an initial denaturation at 95 °C for 30 s, followed by 40 cycles of 95 °C for 3 s and 60 °C for 30 s. The melt curve analysis was conducted post-amplification by gradually increasing the temperature from 60 °C to 95 °C. […] Normalization was performed using the geometric mean of cycle threshold (Ct) values, and the relative expression levels of the target genes were calculated using the 2^−ΔΔCt method. Each reaction was performed in five replicates for all analyzed genes and strains. Results are presented as mean values ± standard deviation (SD).

[5] = Cytotoxicity, XTT viability assay, Caco-2; details: human
Experimental: (§1) The cytotoxicity assay was performed to evaluate the effect of the selected compounds on human cells. Colon cells were used because they are cell lines like those present in the microenvironment where G. lamblia colonizes, which is the small intestine of the host. The assay was performed using the human cell lines Caco-2 (ATCC HTB-37) and HT-29 (ATCC […]). Cell viability was determined using the Cell Proliferation Kit II (XTT, St. Louis, MO, EE. UU.). A cell suspension of 2 × 10^3 cells/mL was prepared in Dulbecco’s modified Eagle’s medium (DMEM) supplemented with 10% inactivated fetal bovine serum and an antibiotic (1% penicillin/streptomycin, 5000 U/mL, in a volume of 100 µL). The suspension was added to a 96-well plate. The plates were incubated for 24 h at 37 °C in a 5% CO2 atmosphere. […] The cells were incubated for 48 h at 37 °C in a 5% CO2 atmosphere. Cell viability was determined using the following steps. The medium in each well was replaced with 100 µL of fresh medium, and 50 µL of XTT labeling mix was added per well. The reaction was incubated for four hours at 37 °C and 5% CO2. After incubation, the absorbance of the samples on the plate was measured at 450 nm. Each compound was assayed in triplicate in three independent experiments. CC50 values (μM) were determined using the nonlinear regression function of GraphPad Prism version 8 for Windows.

Caco-2 cells = assay: Cytotoxicity, XTT viability assay, Caco-2; details: read-out: CC50 Caco-2; 48 h, XTT
Experimental: as §1

HT-29 cells = assay: Cytotoxicity, XTT viability assay, HT-29
Experimental: as §1

[6] = Cytotoxicity, XTT viability assay, HT-29; details: human, HT-29 cells, CC50 HT-29, 48 h, XTT
Experimental: as §1

[7] = ratio of IC50 values, ATCC strain

In the case of `COc1cccc(C(=O)Nc2ncc([N+](=O)[O-])s2)c1` [FLP-6, 3-Methoxy-N-(5-nitro-1,3-thiazol-2-yl)benzamide], the pIC50 [1] is given as 6.27, the “Inhibition of the G6PD::6PGL enzyme (in words)” value [2] is given as “not inhibitors of the enzyme” and the “Decrease of cell viability” value (Caco-2 and HT-29 cells) is given as “up to 30%”. For the same compound, the “Decrease of parasite viability” value ([3]; 25 µM) was 100%, the “Inhibition of growth of G. lamblia parasite culture” value ([3]; concentration not given) was “more than 98%” and the “Relative potency compared with MTZ” value [3, 7] was 12 times. The “Relative potency compared with NTZ” value [3, 7] was 15 times, the “ACT (actin) gene expression, increase vs control” value [4] was 2.5 times and the “G6PD::6PGL gene expression vs control” value [4] was 35 fold change. The “GIA (giardin) gene expression, increase vs control” value [4] was 2.6 times, the “PFK gene expression vs control” value [4] was 2.3 fold change and the “TKT gene expression, decrease vs control” value [4] was 1.2 times. The “VSP gene expression, increase vs control” value [4] was 5.9 times, the selectivity ratio at 48 h ([5]; Caco-2) was 636 and the CC50 at 48 h ([5]; Caco-2, CC50 Caco-2, 48 h, XTT) was 178 µM. For the same compound, the CC50 (Caco-2 cells) was 178 µM, the “Selectivity index (CC50/IC50) HT-29” value (HT-29 cells; CC50 HT-29 / IC50 trophozoite ATCC strain 30957) was 411 and the CC50 (HT-29 cells; read-out: CC50 HT-29, 48 h, XTT) was 115 µM. For the same compound, the CC50 at 48 h [6] was 115 µM.
